Assay results taken from patent US20260138959A1, “QUINAZOLINE DERIVATIVE COMPOUND AND USE THEREOF” (VORONOI INC., priority 2021, published 2026).

Key:
c-KIT V560G/D816V = experiment: Proliferation inhibitory activity on Ba/F3 cell (CellTiter-Glo, 72 hours), c-KIT V560G/D816V; type: cell-based; conditions: Mus musculus, BaF3, c-KIT V560G/D816V cells, read-out: Cell (nM) c-KIT V560G/D816V (GI50 class)
Description: (§1) Ba/F3-TEL-PDGFRα(WT), Ba/F3-TEL-PDGFβ(WT), Ba/F3-c-KIT(D816V) (Kyinno, #KC-0138), c-KIT V560G/D816V, c-KIT D814Y were seeded at 3×10^3/100 μl/well in a clear bottom white 96-well plate. A culture solution containing compounds of 12 concentrations (0.00001-2 mM) serially diluted in 3 folds and the DMSO control group was added at 0.5 μl/well each to a final concentration of 0.00005-10 μM, and then incubated in a CO2 incubator at 37° C. for 72 hours. After 72 hours, the plate treated with the compound was taken out, CellTiter-Glo® Assay (Promega) solution was treated with 100 μl/well, followed by mixing well. After mixing well for about 10 minutes at room temperature, […] was measured using a microplate reader. The data were presented as percentages in proportion to treated cells based on the vehicle, GI50 (nM) values were calculated using GraphPad Prism 8.3.0 (GraphPad software Inc., San Diego).
(§2) The inhibitory activities of Ba/F3 expressing PDGFR-α, PDGFR-β, c-KIT(D816V), c-KIT V560G/D816V, and c-KIT D814Y measured as described above were measured and shown in Table 7 below (A: GI50≤200 nM; B: 200 nM<GI50≤500 nM; C: GI50>500 nM).

Ba/F3-c-KIT(D816V) = experiment: Proliferation inhibitory activity on Ba/F3 cell (CellTiter-Glo, 72 hours), c-KIT(D816V); type: cell-based; conditions: Mus musculus, BaF3, read-out: Ba/F3 (nM) c-KIT (D816V) (GI50 class)
Description: as §1, §2

Structure (SMILES)	GI50 (c-KIT V560G/D816V) [nM]	GI50 (Ba/F3-c-KIT(D816V)) [nM]
COc1cc2c(-c3ccc(NC(=O)Cc4cccc(C(F)(F)F)c4)cc3)ncnc2cc1OCCCN1CCN(C)CC1 [Example 55, N-(4-(6-methoxy-7-(3-(4-methylpiperazin-1-yl)propoxy)quinazolin-4-yl)phenyl)-2-(3-(trifluoromethyl)phenyl)acetamide]	≤ 200	≤ 200
COc1cc2c(-c3ccc(NC(=O)Cc4ccc(C(F)(F)F)cc4)cc3)ncnc2cc1OC[C@H]1CCNC1 [Example 39, (S)-N-(4-(6-methoxy-7-(pyrrolidin-3-ylmethoxy)quinazolin-4-yl)phenyl)-2-(4-(trifluoromethyl)phenyl)acetamide]	200 to 500	≤ 200
CCN1CC[C@H](COc2cc3ncnc(-c4ccc(NC(=O)Cc5ccc(C(F)(F)F)cc5)cc4)c3cc2OC)C1 [Example 41, (S)-N-(4-(7-((1-ethylpyrrolidin-3-yl)methoxy)-6-methoxyquinazolin-4-yl)phenyl)-2-(4-(trifluoromethyl)phenyl)acetamide]	≤ 200	≤ 200
COc1cc2c(-c3ccc(NC(=O)CCc4ccccc4)cc3)ncnc2cc1OCC1CCNCC1 [Example 71, N-(4-(6-methoxy-7-(piperidin-4-ylmethoxy)quinazolin-4-yl)phenyl)-3-phenylpropanamide]	200 to 500	≤ 200
COc1cc2c(-c3ccc(NC(=O)Cc4ccc(C(F)(F)F)cc4)cc3)ncnc2cc1OCCCN1CCN(C)C(=O)C1 [Example 143, N-(4-(6-methoxy-7-(3-(4-methyl-3-oxopiperazin-1-yl)propoxy)quinazolin-4-yl)phenyl)-2-(4-(trifluoromethyl)phenyl)acetamide]	≤ 200	≤ 200
COc1cc2c(-c3ccc(NC(=O)Cc4ccc(C(F)(F)F)cc4)cc3)ncnc2cc1OCCCN1CCC(C)CC1 [Example 44, N-(4-(6-methoxy-7-(3-(4-methylpiperidin-1-yl)propoxy)quinazolin-4-yl)phenyl)-2-(4-(trifluoromethyl)phenyl)acetamide]	≤ 200	≤ 200
COc1cc2ncnc(-c3ccc(NC(=O)Cc4ccc(C(F)(F)F)cc4)cc3)c2cc1OCCCN1CCN(C2CC2)CC1 [Example 127, N-(4-(6-(3-(4-cyclopropylpiperazin-1-yl)propoxy)-7-methoxyquinazolin-4-yl)phenyl)-2-(4-(trifluoromethyl)phenyl)acetamide]	200 to 500	≤ 200
COc1cc2c(-c3ccc(NC(=O)Cc4ccc(C(F)(F)F)cc4)cc3)ncnc2cc1OC1CNC1 [Example 24, N-(4-(7-(azetidine-3-yloxy)-6-methoxyquinazolin-4-yl)phenyl)-2-(4-(trifluoromethyl)phenyl)acetamide]	> 500	≤ 200
COc1cc2c(-c3ccc(NC(=O)Cc4ccc(C(F)(F)F)cc4)cc3)ncnc2cc1OCCCNC1CC1 [Example 25, N-(4-(7-(3-(cyclopropylamino)propoxy)-6-methoxyquinazolin-4-yl)phenyl)-2-(4-(trifluoromethyl)phenyl)acetamide]	≤ 200	≤ 200
COc1cc2c(-c3ccc(NC(=O)Cc4ccc(C(F)(F)F)cc4)cc3)ncnc2cc1OC[C@@H]1CCNC1 [Example 38, (R)-N-(4-(6-methoxy-7-(pyrrolidin-3-ylmethoxy)quinazolin-4-yl)phenyl)-2-(4-(trifluoromethyl)phenyl)acetamide]	–	≤ 200
COc1cc2ncnc(-c3ccc(NC(=O)Cc4ccc(C(F)(F)F)cc4)cc3)c2cc1OC1CCN(C(=O)OC(C)(C)C)C1 (stereo not shown) [Example 136, tert-butyl 3-((7-methoxy-4-(4-(2-(4-(trifluoromethyl)phenyl)acetamido)phenyl)quinazolin-6-yl)oxy)pyrrolidin-1-carboxylate]	–	≤ 200
COc1cc2c(-c3ccc(NC(=O)Cc4ccc(C(F)(F)F)cc4)cc3)ncnc2cc1OCCCN1CC2(C1)CN(C(=O)OC(C)(C)C)C2 [Example 19]	–	≤ 200
C=CCC(=O)Nc1ccc(-c2ncnc3cc(OCCCN4CCN(C)CC4)c(OC)cc23)cc1 [Example 87, N-(4-(6-methoxy-7-(3-(4-methylpiperazin-1-yl)propoxy)quinazolin-4-yl)phenyl)but-3-enamide]	–	≤ 200
COc1cc2ncnc(-c3ccc(NC(=O)Cc4ccc(C(F)(F)F)cc4)cc3)c2cc1OCCCNC1CC1 [Example 154, N-(4-(6-(3-(cyclopropylamino)propoxy)-7-methoxyquinazolin-4-yl)phenyl)-2-(4-(trifluoromethyl)phenyl)acetamide]	–	≤ 200
CCN1CCC(COc2cc3ncnc(-c4ccc(NC(=O)Cn5cc(C(C)(C)C)nn5)cc4)c3cc2OC)CC1 [Example 66, 2-(4-(tert-butyl)-1H-1,2,3-triazole-1-yl)-N-(4-(7-((1-ethylpiperidin-4-yl)methoxy)-6-methoxyquinazolin-4-yl)phenyl)acetamide]	–	≤ 200
COc1cc2ncnc(-c3ccc(NC(=O)Cc4ccc(C(F)(F)F)cc4)cc3)c2cc1OCCCN1CCN(C(C)=O)CC1 [Example 128, N-(4-(6-(3-(4-acetylpiperazin-1-yl)propoxy)-7-methoxyquinazolin-4-yl)phenyl)-2-(4-(trifluoromethyl)phenyl)acetamide]	–	≤ 200
COc1cc2ncnc(-c3ccc(NC(=O)Cc4ccc(C(F)(F)F)cc4)cc3)c2cc1OCCCN1CC(N(C)C)C1 [Example 152, N-(4-(6-(3-(3-(dimethylamino)azetidin-1-yl)propoxy)-7-methoxyquinazolin-4-yl)phenyl)-2-(4-(trifluoromethyl)phenyl)acetamide]	–	≤ 200
COc1cc2ncnc(-c3ccc(NC(=O)Cc4ccc(C(F)(F)F)cc4)cc3)c2cc1OCC1CCNCC1 [Example 146, N-(4-(7-methoxy-6-(piperidin-4-ylmethoxy)quinazolin-4-yl)phenyl)-2-(4-(trifluoromethyl)phenyl)acetamide]	–	> 500
COc1cc2ncnc(-c3ccc(NC(=O)Cc4ccc(C(F)(F)F)cc4)cc3)c2cc1OC1CN(C(=O)OC(C)(C)C)C1 [Example 135, tert-butyl 3-((7-methoxy-4-(4-(2-(4-(trifluoromethyl)phenyl)acetamido)phenyl)quinazolin-6-yl)oxy)azetidin-1-carboxylate]	–	200 to 500
COc1cc2c(-c3ccc(NC(=O)Cc4ccc(C(F)(F)F)cc4)cc3)ncnc2cc1OCCCNc1cnn(C)c1 [Example 26, N-(4-(6-methoxy-7-(3-((1-methyl-1H-pyrazol-4-yl)amino)propoxy)quinazolin-4-yl)phenyl)-2-(4-(trifluoromethyl)phenyl)acetamide]	–	≤ 200
CCN1CCC(COc2cc3ncnc(-c4ccc(NC(=O)Cn5cc(C(C)C)nn5)cc4)c3cc2OC)CC1 [Example 65, N-(4-(7-((1-ethylpiperidin-4-yl)methoxy)-6-methoxyquinazolin-4-yl)phenyl)-2-(4-isopropyl-1H-1,2,3-triazole-1-yl)acetamide]	–	≤ 200
COc1cc2c(-c3ccc(NC(=O)Cn4cc(C(C)(C)C)nn4)cc3)ncnc2cc1OCC1CCNCC1 [Example 62, 2-(4-(tert-butyl)-1H-1,2,3-triazole-1-yl)-N-(4-(6-methoxy-7-(piperidin-4-ylmethoxy)quinazolin-4-yl)phenyl)acetamide]	–	> 500
COc1cc2ncnc(-c3ccc(NC(=O)Cc4ccc(C(F)(F)F)cc4)cc3)c2cc1OC1COC1 [Example 153, N-(4-(7-methoxy-6-(oxetan-3-yloxy)quinazolin-4-yl)phenyl)-2-(4-(trifluoromethyl)phenyl)acetamide]	–	≤ 200
COc1cc2c(-c3ccc(NC(=O)Cn4cc(C(C)(C)C)nn4)cc3)ncnc2cc1OCCCN1CCN(C)CC1 [Example 68, 2-(4-(tert-butyl)-1H-1,2,3-triazole-1-yl)-N-(4-(6-methoxy-7-(3-(4-methylpiperazin-1-yl)propoxy)quinazolin-4-yl)phenyl)acetamide]	–	≤ 200
COc1cc2c(-c3ccc(NC(=O)CC4CCNCC4)cc3)ncnc2cc1OCCCN1CCN(C)CC1 [Example 86, N-(4-(6-methoxy-7-(3-(4-methylpiperazin-1-yl)propoxy)quinazolin-4-yl)phenyl)-2-(piperidin-4-yl)acetamide]	–	> 500
COc1cc2c(-c3ccc(NC(=O)Cn4cc(C(C)C)nn4)cc3)ncnc2cc1OCCCN1CCN(C)CC1 [Example 67, 2-(4-isopropyl-1H-1,2,3-triazole-1-yl)-N-(4-(6-methoxy-7-(3-(4-methylpiperazin-1-yl)propoxy)quinazolin-4-yl)phenyl)acetamide]	–	≤ 200
COc1cc2ncnc(-c3ccc(NC(=O)Cc4ccc(C(F)(F)F)cc4)cc3)c2cc1OCCCN1CC2(CNC2)C1 [Example 148, N-(4-(6-(3-(2,6-diazaspiro[3.3]heptane-2-yl)propoxy)-7-methoxyquinazolin-4-yl)phenyl)-2-(4-(trifluoromethyl)phenyl)acetamide]	–	> 500
COc1cc2c(-c3ccc(NC(=O)Cc4ccc(C(F)(F)F)cc4)cc3)ncnc2cc1OCCCN1CC2(CNC2)C1 [Example 20, N-(4-(7-(3-(2,6-diazaspiro[3.3]heptane-2-yl)propoxy)-6-methoxyquinazolin-4-yl)phenyl)-2-(4-(trifluoromethyl)phenyl)acetamide]	–	> 500
